Where a name gives a salt, the structure may show the parent alone. Read-outs that look alike come from different tables or passages of the source.
Tests used:
c-Raf-1Y340D/Y341D = test system: c-Raf-1Y340D/Y341D; parameters: method as in library vendor description; settings: ref library vendor description; cited from earlier work
[1] = test system: Toxoplasma gondii RH-2F tachyzoites; assay: microbe, parasite or virus in culture; settings: 72 h
NWT-21 fibrosarcoma = settings: dose of 50 mg/kg; cited from earlier work
[2] = test system: Toxoplasma gondii RH-2F tachyzoites; assay: microbe, parasite or virus in culture; assay type: cell-based; settings: 72 h, read-out: IC50 for parasite growth
GFP-TgAtg8 tachyzoites [3] = assay: Flow cytometric analysis of the parasite cell cycle (PI staining); assay type: cell-based, Toxoplasma gondii; settings: 8 h with compound after PDTC synchronization
Protocol: Flow cytometric analyses were performed as described previously. Briefly, HFFs were infected with GFP-TgAtg8 tachyzoites at a MOI = 1. At 12 hpi, the cell cycle was synchronized by adding 80 μM pyrrolidine dithiocarbamate (PDTC, Sigma-Aldrich) and incubating at 37 °C and 5% CO2 for 8 h. After removing the PDTC, cells were incubated at 37 °C and 5% CO2 for 8 h in media containing the specified compound. The extracellular parasites were removed by washing with ice-cold PBS, and the intracellular tachyzoites were isolated by passage of host cells through a 27-gauge needle and purified with a 3 μm filter. The purified parasites were fixed with ice cold ethanol at − 20 °C for 24 h, and their DNA was stained by using propidium iodide (PI) solution (40 μg/ml PI, 360 μg/ml RNase A and 2% BSA in PBS) at 37 °C for 30 min in the dark. The stained parasites were filtered with a 5 μm pore filter and analysed on a FACSCanto™II flow cytometer (BD Biosciences, CA, USA). The results were analysed on an EPICS-XL flow cytometer (Beckman Coulter, CA, USA) by using SYSTEM II software (Beckman Coulter), and the percentages of the population in each phase of the cell cycle (G1, S, and G2 +M) were calculated. At least 10,000 events were collected per sample.

[4] = test system: Toxoplasma gondii RH-2F tachyzoites; settings: 5 μM compound, 72 h, RH-2F in HFFs; DMSO 0%, 10 μM pyrimethamine 100% inhibition
[5] = test system: NWT-21 cells (NIH3T3 stably expressing the human IGF-IR); settings: in vitro; read-out: IC50 against NWT-21 cells; cited from earlier work
[6] = cited from earlier work
[7] = test system: human foreskin fibroblasts (HFFs); assay: In vitro drug efficacy: dose-response host cell viability by CCK8 (TD50); assay type: cell-based; settings: uninfected HFFs, serial dilutions 0 to 100 μM, 72 h
Protocol: Each selected compound with an initial concentration of 100 μM in the culture medium was added to the first column of HFFs (~ 250 cells/well) in a 96-well half-area plate and then diluted serially across the plate by 2-fold dilutions, leaving the final column drug-free. […] Fifty tachyzoites were then added at a MOI of 1:5 to each well in six of the eight rows. After a 72 h incubation, CPRG was added, and the absorbance was measured at 570 nm. Meanwhile, to measure the effect of each compound on the viability of host cells, CCK8 reagent was added to the two rows of uninfected HFFs and absorbance at 450 nm was measured after 2 h. The assay was performed in triplicate and repeated three times.

[8] = test system: human foreskin fibroblasts (HFFs)
[9] = test system: RH GFP-TgAtg8 tachyzoites; assay: Intracellular proliferation assay; settings: NVP-AEW541 […], GSK-J4 HCl 5 μM, 24 h after 2 h infection
T. gondii RH strain [10] = assay: Murine model of acute toxoplasmosis: survival; assay type: in vivo, BALB/c mice; settings: 50 mg/kg oral once daily for 5 days, RH tachyzoites ip, 20-day observation, n = 10; vehicle 11.9 ± 0.74 days
Protocol: To evaluate the ability of the two compounds to protect against acute T. gondii infection in vivo, we used a BALB/c murine model and challenged the mice with the RH-2F strain of T. gondii. Mice were divided into 4 groups consisting of 15 mice each and injected intraperitoneally with 10^3 RH strains per animal. Compounds were dissolved in DMSO and diluted in PBS prior to feeding to mice. After 4 h of infection, mice were treated for 5 consecutive days with daily oral administration of the specified compound at 50 mg/kg (once a day). Mice treated with pyrimethamine (50 mg/kg) were used as a positive control, and 1 ml PBS containing 11 μl of DMSO was used as a negative control. Within each group, 5 mice were euthanized at 7 dpi for comparison of parasite burden, and 10 mice were part of a 20-day survival experiment. Mice were monitored as described previously and scored twice per day for signs of toxoplasmosis, such as impaired mobility, difficulty in feeding, weight loss, self-mutilation and severe ascites. […] At the end of the experimental period, all remaining mice were euthanized.

IGF-1R = test system: IGF-1R; parameters: method as in library vendor description; settings: ref library vendor description; cited from earlier work
GFP-TgAtg8 tachyzoites [11] = assay: Egress assay (A23187-induced); settings: compound for 24 h, 3 μM A23187 for 5 min
EGFR(E746_A750) = test system: EGFR(E746_A750); parameters: method as in library vendor description; settings: ref library vendor description; cited from earlier work
EGFRL858R = test system: EGFRL858R; parameters: method as in library vendor description; settings: ref library vendor description; cited from earlier work
OSA 8 cells = test system: OSA 8 cells; parameters: method as in library vendor description; settings: HSP90 inhibitor; ref library vendor description; cited from earlier work
in vitro = settings: human; for viability at 72 h: Host viability (%) mean
MIAPaCa2 cells = test system: MIAPaCa2 cells; parameters: method as in library vendor description; settings: ref library vendor description; cited from earlier work
Capan2 cells = test system: Capan2 cells; parameters: method as in library vendor description; settings: ref library vendor description; cited from earlier work
PANC1 cells = test system: PANC1 cells; parameters: method as in library vendor description; settings: ref library vendor description; cited from earlier work
BxPC3 cells = test system: BxPC3 cells; parameters: method as in library vendor description; settings: ref library vendor description; cited from earlier work
[12] = Side effects / survival of uninfected healthy mice; assay type: in vivo, BALB/c mice; settings: healthy mice treated with compound, data not shown
Protocol: All mice were purchased from the Laboratory Animal Center, Wenzhou Medical University, Zhejiang, China. They were bred and handled in strict accordance with the Good Animal Practice requirements of the Animal Ethics Procedures and Guidelines of China. In a preliminary experiment aiming to assess the side effects of compounds, female BALB/c mice (6–8 weeks old, ~20 g) were orally administered with each compound at 50 mg/kg for 5 days and were monitored for 30 days. There was no obvious clinical toxicity after treatment with all compounds during this time period.

T. gondii RH strain [13] = assay: Murine model of acute toxoplasmosis: tissue parasite burden by B1 gene qPCR; assay type: in vivo, BALB/c mice; settings: 7 dpi, 50 mg/kg oral for 5 days, n = 5, compared with vehicle control
Protocol: Meanwhile, the parasite burden in the brain, liver and spleen of infected mice was measured at 7 dpi as described previously. Briefly, whole organs were mixed in lysis buffer (50 mM Tris pH 8.0, 50 mM EDTA, 1% SDS, 50 mg/ml of proteinase K) and incubated overnight at 56 °C. Total genomic DNA from 25 mg of tissue in 100 μl of lysis buffer was then extracted using DNeasy Blood and Tissue Kit (Qiagen, Shanghai, China) following the manufacturer’s instructions. […]. Amplification was performed in a final volume of 20 μl using a ChamQ Universal SYBR qPCR Master Mix (Cat# Q711-02; Vazyme, Nanjing, China). Each reaction contained 10 μl of 2× ChamQ SYBR qPCR Master Mix, 1 μl of template DNA, 8.2 μl of distilled water and 0.4 μM each primer. The following amplification conditions were applied: 30 s at 95 °C; 40 cycles of 95 °C for 10 s, 60 °C for 30 s; and one cycle of 95 °C for 15 s, 60 °C for 1 min and 95 °C for 15 s. The number of parasites was calculated from the standard curve prepared in parallel.

[14] = test system: NS3/4A protease of hepatitis C virus (HCV); parameters: method as in library vendor description; settings: ref library vendor description; cited from earlier work
EGFRL858R/T790M = test system: EGFRL858R/T790M; parameters: method as in library vendor description; settings: ref library vendor description; cited from earlier work
CDK9 = test system: CDK9; parameters: method as in library vendor description; settings: ref library vendor description; cited from earlier work
A375 cells = test system: A375 cells; parameters: method as in library vendor description; settings: Hsp90 inhibitor; ref library vendor description; cited from earlier work
Aurora A = target: Aurora A; parameters: method as in library vendor description; settings: ref library vendor description; cited from earlier work
RH GFP-TgAtg8 parasites = assay: Invasion assay; settings: pre-treated 8 h, GSK-J4 HCl 5 μM, invasion for 1 h
Kasumi-1 cells [15] = settings: in vitro; read-out: IC50 against Kasumi-1 cells; cited from earlier work
Kasumi-1 cells [16] = test system: Kasumi-1 cells; parameters: dose or concentration left out as unconfirmed; settings: cited from earlier work
[17] = read-out: Parasite inhibition (%) mean, preliminary screen, mean

## CCCS(=O)(=O)Nc1ccc(F)c(C(=O)c2c[nH]c3ncc(Cl)cc23)c1F [PLX-4720]
c-Raf-1Y340D/Y341D
  IC50: 0.0067 µM
[1]; [17]
  inhibition of growth at 5 µM: 0.2%

## NVP-AEW541
NWT-21 fibrosarcoma
  anti-tumour activity in mouse model: had anti-NWT-21 fibrosarcoma activity
[2]; RH-2F-infected HFFs, serial dilutions 0 to 100 μM, β-Gal activity
  IC50: 1.17 µM
GFP-TgAtg8 tachyzoites [3]
  percentage of parasites in G1 phase: 44.25%
  percentage of parasites in G2 phase: 8.30%
  percentage of parasites in S phase: 47.45%
[4]
  Parasite inhibition (%) Mean ± SD: 91.5 ± 2.5%
[5]
  IC50: 1.64 µM
[6]; 50 mg/kg of body weight for 1–2 weeks
  toxicity in experimental mice: no apparent toxicity
[7]
  TD50 against HFF (host cell): 7.3 µM
[8]
  Host viability (%) mean: 80.7%
[8]; 5 µM
  Host viability (%) Mean ± SD: 80.7 ± 1.2%
[9]
  effect on Toxoplasma intracellular growth (tachyzoites per vacuole): not impaired
T. gondii RH strain [10]
  survival time of infected mice: 14.6 ± 1.84 days
IGF-1R
  IC50: 0.086 µM
GFP-TgAtg8 tachyzoites [11]
  effect on Toxoplasma egress: neither NVP-AEW541 nor GSK-J4 HCl inhibits Toxoplasma egress

## C=CC(=O)Nc1cccc(Oc2nc(Nc3ccc(N4CCN(C)CC4)cc3)ncc2Cl)c1 [WZ3146]
[1]; read-out: Parasite inhibition (%) mean
  inhibition of growth at 5 µM: -33.7%
EGFR(E746_A750)
  IC50: 0.002 µM
EGFRL858R
  IC50: 0.002 µM

## CC(C)c1cc(-c2n[nH]c(=O)n2-c2ccc3c(ccn3C)c2)c(O)cc1O [Ganetespib (STA-9090)]
OSA 8 cells
  IC50: 0.004 µM
[1]; [17]
  inhibition of growth at 5 µM: 5.1%

## Nc1ccn([C@@H]2O[C@@H](CO)[C@@H](O)C2(F)F)c(=O)n1 [Gemcitabine HCl (Gemzar)]
In vitro
  viability: 16.8%
MIAPaCa2 cells
  IC50: 0.04 µM
Capan2 cells
  IC50: 0.012 µM
[1]; [17]
  inhibition of growth at 5 µM: 75.4%
PANC1 cells
  IC50: 0.05 µM
BxPC3 cells
  IC50: 0.018 µM

## CCc1nc(N)nc(N)c1-c1ccc(Cl)cc1 [pyrimethamine, Pyrimethamine]
[12]
  survival of healthy (uninfected) mice: survived
T. gondii RH strain [13]
  parasite burden in brain, liver and spleen: lowest parasite burden in tissue

## CC(C)(C)OC(=O)N[C@H]1CCCCC/C=C\[C@@H]2C[C@@]2(C(=O)NS(=O)(=O)C2CC2)NC(=O)[C@@H]2C[C@@H](OC(=O)N3Cc4cccc(F)c4C3)CN2C1=O [Danoprevir]
[14]
  IC50: 0.0002 to 0.0035 µM
[1]; [17]
  inhibition of growth at 5 µM: 0.9%

## C=CC(=O)Nc1cccc(Oc2nc(Nc3ccc(N4CCN(C)CC4)cc3OC)ncc2Cl)c1 [WZ4002]
EGFRL858R/T790M
  IC50: […]
[1]; [17]
  inhibition of growth at 5 µM: -5.9%
EGFRL858R
  IC50: […]

## CC(C)(C)c1cnc(CSc2cnc(NC(=O)C3CCNCC3)s2)o1 [SNS-032 (BMS-387032)]
CDK9
  IC50: […]
[1]; [17]
  inhibition of growth at 5 µM: 9.9%

## CC(C)c1cc(C(=O)N2Cc3ccc(CN4CCN(C)CC4)cc3C2)c(O)cc1O [AT13387]
A375 cells
  IC50: 0.018 µM
[1]; [17]
  inhibition of growth at 5 µM: -1.7%

## Cc1nc(N)sc1-c1ccnc(Nc2ccc(N3CCOCC3)cc2)n1 [CYC116]
In vitro
  viability at 72 h: 60.6%
Aurora A
  Ki: 0.008 µM
[1]; [17]
  inhibition of growth at 5 µM: 71.7%

## CCOC(=O)CCNc1cc(N2CCc3ccccc3CC2)nc(-c2ccccn2)n1 [GSK-J4 HCl]
In vitro; Host viability (%) Mean ± SD
  viability at 72 h, 5 µM: 92.2 ± 3.8%
In vitro
  viability at 72 h: 92.2%
[2]; Toxoplasma gondii
  IC50: 2.37 µM
GFP-TgAtg8 tachyzoites [3]
  percentage of parasites in G1 phase: 70.88%
  percentage of parasites in G2 phase: 0.00%
  percentage of parasites in S phase: 29.12%
[6]; 50 mg/kg of body weight for 4–6 weeks
  toxicity in experimental mice: no apparent toxicity
RH GFP-TgAtg8 parasites
  effect on ability of parasites to invade host cells: not affected
[7]
  TD50 against HFF (host cell): 34.6 µM
Kasumi-1 cells [15]
  IC50: 5.52 µM
[9]
  effect on Toxoplasma intracellular growth (tachyzoites per vacuole): significantly inhibited Toxoplasma intracellular growth
T. gondii RH strain [10]
  survival time of infected mice: 15.2 ± 1.69 days
[1]; read-out: Parasite inhibition (%) Mean ± SD
  inhibition at 5 µM: 90.4 ± 1.4%
Kasumi-1 cells [16]
  leukemia infiltration in AML xenograft mouse model: decreased leukemia infiltration
GFP-TgAtg8 tachyzoites [11]
  effect on Toxoplasma egress: neither NVP-AEW541 nor GSK-J4 HCl inhibits Toxoplasma egress

Reference: PMC7216583 (Parasites & Vectors, 2020)
